Assay results from US7056913B2, “C8—linked pyrrolo[2,1-c][1,4]benzodiazepine-acridone/acridine hybrids” (Council of Scientific and Industrial Research, priority 2004, dated 2006).

What was measured:
[1] = tested on: melanoma cancer (UACC-62); experiment: NCI in vitro cytotoxicity, SRB assay; assay type: cell-based, human; conditions: UACC-62 melanoma; read-out: potency at the LC50 level
Method: (§1) Cytotoxicity: 7-methoxy-8-[3′-(4″-acridonylcarboxamido)propyl]-oxy-(11aS)1,2,3,11a-tetrahydro-5H-pyrrolo[2,1-c][1,4]benzodiazepin-5-one of formula IV was evaluated for primary anti-cancer activity (Table 1) and in vitro against sixty human tumour cells derived from nine cancer types (leukemia, non-small-cell lung, colon, CNS, melanoma, ovarian, prostate, and breast cancer). For each compound, dose response curves for each cell line were measured at a minimum of five concentrations at 10 fold dilutions. A protocol of 48 h continuous drug expose was used and a sulforhodamine B (SRB) protein assay was used to estimate cell viability or growth. The concentration causing 50% cell growth inhibition (GI50), total cell growth inhibition (TGI, 0% growth) and 50% cell death (LC50, −50% growth) compared with the control was calculated.

renal cancer (SN12C) = experiment: NCI in vitro cytotoxicity, SRB assay; assay type: cell-based, human; conditions: read-out: potency at the LC50 level
Method: as §1

[2] = tested on: breast cancer (MDA-MB-435); experiment: NCI in vitro cytotoxicity, SRB assay; assay type: cell-based, human; conditions: MDA-MB-435 breast; read-out: potency at the LC50 level
Method: as §1

[3] = tested on: melanoma cancer cell line M14; experiment: NCI in vitro cytotoxicity, SRB assay; assay type: cell-based, human; conditions: read-out: potency at the LC50 level
Method: as §1

colon cancer (HCC-2998) = experiment: NCI in vitro cytotoxicity, SRB assay; assay type: cell-based, human; conditions: HCC-2998 colon; read-out: potency at the LC50 level
Method: as §1

CNS cancer (SNB-75) = experiment: NCI in vitro cytotoxicity, SRB assay; assay type: cell-based, human; conditions: SNB-75 CNS; read-out: potency at the LC50 level
Method: as §1

[4] = tested on: melanoma cancer cell line LOXIMVI; experiment: NCI in vitro cytotoxicity, SRB assay; assay type: cell-based, human; conditions: read-out: potency at the LC50 level
Method: as §1

sixty human tumour cells = experiment: NCI in vitro cytotoxicity, SRB assay, mean graph midpoints; assay type: cell-based; conditions: 48 h continuous drug exposure
Method: as §1

[5] = tested on: Ovarian cancer cell lines; experiment: NCI in vitro cytotoxicity, SRB assay, cancer type average; assay type: cell-based, human; conditions: average of six to nine cell lines
Method: as §1
(§2) Each cancer type represents the average of six to nine different cancer cell lines.

Renal cancer cell lines = experiment: as above; assay type: cell-based, human; conditions: average of six to nine cell lines
Method: as §1, §2

CNS cancer cell lines = experiment: as above; assay type: cell-based, human; conditions: average of six to nine cell lines
Method: as §1, §2

[6] = tested on: non-small-cell lung cancer cell lines; experiment: as above; assay type: cell-based, human; conditions: average of six to nine cell lines
Method: as §1, §2

[7] = tested on: Melanoma cancer cell lines; experiment: as above; assay type: cell-based, human; conditions: average of six to nine cell lines
Method: as §1, §2

Colon cancer cell lines = experiment: as above; assay type: cell-based, human; conditions: average of six to nine cell lines
Method: as §1, §2

Breast cancer cell lines = experiment: as above; assay type: cell-based, human; conditions: average of six to nine cell lines
Method: as §1, §2

SF-268 (CNS) = experiment: In vitro one dose primary anticancer assay; assay type: cell-based, human; conditions: one dose at 10^−4 molar concentration
Method: as §1

MCF7 (Breast) = experiment: In vitro one dose primary anticancer assay; assay type: cell-based, human; conditions: one dose at 10^−4 molar concentration
Method: as §1

NCI-H460 (Lung) = experiment: In vitro one dose primary anticancer assay; assay type: cell-based, human; conditions: one dose at 10^−4 molar concentration
Method: as §1

Structure (SMILES): COc1cc2c(cc1OCCCNC(=O)c1cccc3c(=O)c4ccccc4[nH]c13)N=C[C@@H]1CCCN1C2=O [Compound IV, 7-methoxy-8-[3′-(4″-acridonylcarboxamido)propyl]-oxy-(11aS)1,2,3,11a-tetrahydro-5H-pyrrolo[2,1-c][1,4]benzodiazepin-5-one]
- LC50 (concentration causing 50% cell death) [1]: < 0.01 µM
- LC50 (concentration causing 50% cell death) (renal cancer (SN12C)): > 10 µM
- CC50 [2]: 0.1 µM
- LC50 [3]: > 10 µM
- LC50 (concentration killing 50% of cells) (colon cancer (HCC-2998)): 0.1 µM
- LC50 (concentration causing 50% cell death) (CNS cancer (SNB-75)): 0.1 µM
- CC50 [4]: > 10 µM
- Log10 LC50 mean graph midpoint (MG_MID) (sixty human tumour cells; 50% cell death): −4.32
- Log10 GI50 mean graph midpoint (MG_MID) (sixty human tumour cells; 50% cell growth inhibition): −7.73
- Log10 TGI mean graph midpoint (MG_MID) (sixty human tumour cells; total cell growth inhibition): −5.56
- Log LC50 (concentration in mol/L causing 50% lethality) [5]: −4.012 log(mol/L)
- Log LC50 (concentration in mol/L causing 50% lethality) (Renal cancer cell lines): −4.27 mol/L
- Log LC50 (concentration in mol/L causing 50% lethality) (CNS cancer cell lines): −4.425 mol/L
- Log LC50 (concentration in mol/L causing 50% lethality) [6]: −4.14 log10(mol/L)
- Log LC50 (concentration in mol/L causing 50% lethality) [7]: −5.09 mol/L
- Log LC50 (concentration in mol/L causing 50% lethality) (Colon cancer cell lines): −4.33 mol/L
- Log LC50 (concentration in mol/L causing 50% lethality) (Breast cancer cell lines): −4.40 mol/L
- Growth percentages (CNS) SF-268 (SF-268 (CNS)): 10%
- Growth percentages (Breast) MCF7 (MCF7 (Breast)): 0%
- Growth percentages (Lung) NCI-H460 (NCI-H460 (Lung)): 0%
